Biological target: T1, RORγ-LBD (Homo sapiens, UniProt P51449)
T1 construct: made in house; host or cells: SF9 insect cells, baculovirus; crude lysate used
T1 sequence (P51449 269-508 limits assumed): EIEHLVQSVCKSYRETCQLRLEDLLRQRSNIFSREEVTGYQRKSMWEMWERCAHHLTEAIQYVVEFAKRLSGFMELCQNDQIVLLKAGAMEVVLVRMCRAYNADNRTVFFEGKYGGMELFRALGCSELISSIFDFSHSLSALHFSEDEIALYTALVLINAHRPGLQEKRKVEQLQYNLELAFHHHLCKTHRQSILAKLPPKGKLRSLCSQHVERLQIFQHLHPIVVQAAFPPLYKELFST
Assay: RORγ-Ligand Binding Domain (LBD) TR-FRET Assay
Format: biochemical
Conditions: recombinant HIS-tagged RORγ-LBD lysate, biotinylated SRC1-2 LXXLL peptide
Experimental: Recombinant, HIS-tagged RORγ-LBD was expressed in SF9 cells using a baculovirus expression system. Cells were lysed and the lysate was used as a source for RORγ-LBD for the assay. A 1:80 dilution of RORγ-LBD lysate in assay buffer (25 mM HEPES pH 7.0, 100 mM NaCl, 0.01% Tween, 0.1% BSA) was prepared and 5 μL was added to each well (RORγ-LBD final concentration ˜3 nM). Control wells received lysate from SF9 cells not expressing RORγ-LBD.
Compounds to be tested were diluted to 100× final test concentration in DMSO and further diluted to 4× final test concentration using assay buffer to provide the test compound mixture. An aliquot (5 μL) of the test compound mixture was added to each well.
A 4× stock of biotinylated-LXXLL peptide from SRC1-2 (Biotin-[…]) was prepared in assay buffer and a 5 μL aliquot added to each well (450 nM final concentration). A 4× solution of europium tagged anti-HIS antibody (2 nM final concentration) and APC conjugated streptavidin (60 nM final concentration) were prepared and a 5 μL aliquot added to each well.
The final assay mixture was incubated for 4 hours to overnight, and the fluorescence signal was measured on an Envision plate reader: (Excitation filter=340 nm; APC emission=665 nm; Europium emission=615 nm; dichroic mirror=D400/D630; delay time=100 μs, integration time=200 μs).
EC50 values for test compounds were calculated from the quotient of the fluorescence signal at 665 nm divided by the fluorescence signal at 615 nm using GraphPad Prism software

EC50, < 150 nM:
O=C(Nc1ccc2c(c1)C(S(=O)(=O)c1ccc(C(F)(F)F)cc1)CCC2)c1c(F)cccc1F (stereo not shown) [IV-4]
O=C(Nc1ccc2c(c1)C(S(=O)(=O)c1ccc(C(F)(F)F)cc1)CCC2)c1c(F)cccc1Cl (stereo not shown) [Compound 1, 2-Chloro-6-fluoro-N-[8-(4-trifluoromethylbenzenesulfonyl)-5,6,7,8-tetrahydronaphthalen-2-yl]benzamide]
O=C(Nc1ccc2c(c1)C(S(=O)(=O)c1ccc(C(F)(F)F)cc1)CCC2)c1c(Cl)cccc1C(F)(F)F (stereo not shown) [IV-1]
O=C(Nc1ccc2c(c1)C(S(=O)(=O)c1ccc(C(F)(F)F)cc1)CCC2)c1c(F)cccc1C(F)(F)F (stereo not shown) [IV-2]
